In US9655865B2, “Therapeutic treatment for metabolic syndrome, type 2 diabetes, obesity, or prediabetes” (VeroScience, LLC, priority 2002, dated 2017):

What was measured:
Assay type in all cases: in vivo
[1] = system: obese, diabetic female ob/ob mice; assay: Amphetamine with or without bromocriptine, 14 days in ob/ob mice (Example 3); conditions: amphetamine 3 mg/kg
Text: Amphetamine is a selective presynaptic dopamine release enhancer. It also acts as a presynaptic noradrenergic release enhancer but at higher dosages that will counter the effect of the dopamine reuptake inhibition activity to improve metabolism. However, addition of a dopamine D2 receptor agonist will act to reduce any amphetamine-induced increase in synaptic noradrenaline level and therefore should produce a more pronounced desired effect on metabolic disease than amphetamine or the D2 receptor agonist alone. A study was conducted to determine the effects of low dose amphetamine (3 mg/kg) with or without the dopamine D2 receptor agonist bromocriptine (5-<10 mg/kg dose) upon body weight gain, blood glucose, plasma free fatty acid and triglyceride levels in obese, diabetic mice (ob/ob strain). […] The ob/ob mouse is hyperphagic, obese, insulin resistant, diabetic and dyslipidemic due to the absence of functional leptin as a result of a mutation in this gene. Starvation or calorie restriction of these mice leads to increases in plasma free fatty acid levels that can function over the long term to worsen diabetes.
On the fifteenth day of the study and approximately 24 hours after the final treatment animals were sacrificed and blood samples were obtained for the analyses of blood glucose, plasma free fatty acid and triglyceride levels.

[2] = system: obese, diabetic female ob/ob mice; assay: Fusaric acid and SKF 38393, alone and combined, 14 days in ob/ob mice (Example 4); conditions: fusaric acid 15 mg/kg, SKF 38393 10 mg/kg
Protocol: Fusaric acid is a dopamine beta hydroxylase inhibitor that reduces noradrenaline synthesis in noradrenergic neurons. It is not present in dopaminergic neurons and thus exerts no such effect there. SKF38393 is a post-synaptic dopamine D1 receptor agonist with no marked influence on noradrenergic neurons. A study was conducted to determine the interactive effects of fusaric acid plus SKF 38393 on body fat store levels, and blood glucose and plasma triglyceride levels in ob/ob mice. The ob/ob mouse is hyperphagic, obese, insulin resistant, diabetic and dyslipidemic due to the absence of functional leptin as a result of a mutation in this gene.
Obese, diabetic female ob/ob mice (body weight of approximately 33 g) maintained on 14 hour daily photoperiods, housed one per cage and allowed to feed ad libitum were randomized to once daily treatment with either fusaric acid (15 mg/kg; n=6-8), SKF 38393 (10 mg/kg; n=6-8), both fusaric acid (15 mg/kg) and SKF 38393 (10 mg/kg) (n=6-8), or vehicle (control group; n=6-8) for a 14 day period. On the fifteenth day of the study and approximately 24 hours after the final treatment animals were sacrificed and blood samples were obtained for the analyses of blood glucose, plasma free fatty acid and triglyceride levels. Relative to controls, fusaric acid raised blood glucose from 380+/−30 mg/dl to 430+/−30 mg/dl and SKF 38393 reduced blood glucose to 290+/−55 mg/dl. However, fusaric acid plus SKF 38393 reduced blood glucose to 180+/−20 mg/dl. […] Neither fusaric acid nor SKF 38393 had any effect on retroperitoneal fat pad weight (735+/−43 mg and 735+/−50 mg, respectively versus control value of 727+/−25 mg) however, the combination of fusaric acid plus SKF 38393 reduced retroperitoneal fat pad weight to 680+/−25 mg.

[3] = system: high fat fed, hypertensive SHR rats; assay: Quinelorane and fusaric acid, alone and combined, in high fat fed hypertensive SHR rats (Example 5); conditions: SHR rats on high fat diet
Protocol: Male SHR rats were maintained on 14 hour daily photoperiods and fed a high fat diet (60% of energy from fat; 5.24 kcal/gram weight) for 3 weeks and then divided into different groups and treated with either quinelorane (Q; a dopamine D2/D3 mixed receptor agonist) (0.075 mg/kg), fusaric acid (FA; a dopamine beta hydroxylase inhibitor) (12.5 mg/kg), quinelorane (0.075 mg/kg) plus FA (Q/FA) (12.5 mg/kg), or vehicle at 13 hours after light onset for 17 days. The doses of Q and FA were set at less than half maximal to effect central dopamine receptor binding functions and dopamine beta hydroxylase activity, respectively. […] Blood pressure measurements were taken at 14 days of treatment and animals were sacrificed at 18 days of treatment for analyses of body fat and humoral factors and metabolites. […] Respecting blood glucose, although both Q and FA reduced glucose level relative to vehicle, only the Q/FA regimen normalized blood glucose in these animals relative to vehicle (FIG. 6).

[4] = relative to vehicle, sacrifice at 18 days

SMILES: CC(N)Cc1ccccc1 (stereo not drawn) [amphetamine]
- plasma free fatty acid levels ([1]; 14 days, controls 900+/−100): 510 ± 30 µM
- final body weight ([1]; bromocriptine 5-<10 mg/kg, 14 days, controls 44+/−1): no effect
- plasma triglyceride levels ([1]; bromocriptine 5-<10 mg/kg, 14 days, controls 175+/−21): 70 ± 7 mg/dL
- blood glucose ([1]; bromocriptine 5-<10 mg/kg, once daily 14 days, controls 422+/−46): 348 ± 22 mg/dL

SMILES: Cl.Oc1cc2c(cc1O)C(c1ccccc1)CNCC2 (stereo not drawn) [SKF 38393, 1-phenyl-7,8-dihydroxy-2,3,4,5-tetrahydro-1H-3-benzazepine hydrochloride]
- retroperitoneal fat pad weight ([2]; 14 days, control 727+/−25): 735 ± 50 mg
- plasma triglyceride level ([2]; 14 days, controls 155+/−15): 130 ± 7 mg/dL
- blood glucose ([2]; once daily 14 days, controls 380+/−30): 290 ± 55 mg/dL

SMILES: CCCN1CCC[C@@H]2Cc3nc(N)ncc3C[C@H]21 [Q]
- desensitization to the effects on weight loss ([3]; Q 0.075 mg/kg, 17 days): exhibited desensitization
- change from baseline body weight (weight loss) ([3]; Q 0.075 mg/kg, FA 12.5 mg/kg, 17 days, FIGS. 1 and 2): modest if any effects
- blood glucose ([3]; relative to vehicle, FIG. 6): reduced
- plasma endothelin-1 (endothelin 1-21 fragment) [3, 4]: no significant effect
- plasma nitric oxide [3, 4]: no significant effect
